Experimental findings from ChEMBL document CHEMBL1201862, “PubChem BioAssay data set” (2004) are described below.

Active and inactive are the calls of the source. Where only a bound is given, the exact number is not on record here.

The target in one data set is SUMO-activating enzyme (Homo sapiens, UniProt Q9UBT2). Nature of the data set: blockers of UBC9-mediated SUMO conjugation – biochemical, AlphaScreen, SUMOylation inhibitor project, confirmation (AID 2018). Type of data set: functional.
A further data set concerns the target Cytochrome P450 2D6 (Homo sapiens, UniProt P10635).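 Also: CYP2D6 member of a cytochrome P450 panel assay.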
For the next data set, the target named is Cytochrome P450 2C9 (Homo sapiens, UniProt P11712).
Sequence of Cytochrome P450 2C9 (P11712 whole entry): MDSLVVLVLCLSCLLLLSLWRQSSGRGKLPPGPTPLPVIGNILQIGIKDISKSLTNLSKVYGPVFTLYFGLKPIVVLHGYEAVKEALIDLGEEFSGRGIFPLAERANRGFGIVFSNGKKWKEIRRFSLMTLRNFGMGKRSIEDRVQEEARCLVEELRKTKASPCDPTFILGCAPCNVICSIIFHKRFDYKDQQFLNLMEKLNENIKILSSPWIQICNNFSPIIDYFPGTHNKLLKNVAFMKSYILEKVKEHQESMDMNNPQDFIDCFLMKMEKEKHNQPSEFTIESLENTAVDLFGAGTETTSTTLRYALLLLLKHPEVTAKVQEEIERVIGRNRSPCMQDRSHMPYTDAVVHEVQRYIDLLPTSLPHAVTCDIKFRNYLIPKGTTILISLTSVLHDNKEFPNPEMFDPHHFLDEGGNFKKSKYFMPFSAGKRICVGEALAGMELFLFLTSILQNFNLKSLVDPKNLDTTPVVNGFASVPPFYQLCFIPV
For a further data set, the target named is Cytochrome P450 2C19 (Homo sapiens, UniProt P33261). Nature of the data set: Cytochrome panel assay with activity outcomes. Panel member name: p450-cyp2c19 Compounds with AC50 equal or less than 10 uM are considered active. Type of data set: functional.
Sequence of Cytochrome P450 2C19 (P33261 whole entry): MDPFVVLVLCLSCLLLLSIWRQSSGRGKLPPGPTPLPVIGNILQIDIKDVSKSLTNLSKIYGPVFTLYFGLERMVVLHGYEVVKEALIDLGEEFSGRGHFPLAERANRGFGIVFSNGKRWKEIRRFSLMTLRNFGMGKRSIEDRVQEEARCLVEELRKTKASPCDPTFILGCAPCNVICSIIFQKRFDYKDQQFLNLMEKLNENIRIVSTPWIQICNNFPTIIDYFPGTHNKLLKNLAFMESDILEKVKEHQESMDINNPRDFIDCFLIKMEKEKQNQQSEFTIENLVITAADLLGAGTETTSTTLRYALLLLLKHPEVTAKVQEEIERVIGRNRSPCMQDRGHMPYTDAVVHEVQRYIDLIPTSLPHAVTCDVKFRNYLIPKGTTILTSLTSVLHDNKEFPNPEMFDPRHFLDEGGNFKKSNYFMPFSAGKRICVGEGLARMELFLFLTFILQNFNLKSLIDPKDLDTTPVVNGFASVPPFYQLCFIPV
The target in the next data set is T1, Cytochrome P450 1A2 (Homo sapiens, UniProt P05177).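 Also: PubChem cytochrome P450 panel assay, CYP1A2 panel member.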
T1 sequence (P05177 whole entry): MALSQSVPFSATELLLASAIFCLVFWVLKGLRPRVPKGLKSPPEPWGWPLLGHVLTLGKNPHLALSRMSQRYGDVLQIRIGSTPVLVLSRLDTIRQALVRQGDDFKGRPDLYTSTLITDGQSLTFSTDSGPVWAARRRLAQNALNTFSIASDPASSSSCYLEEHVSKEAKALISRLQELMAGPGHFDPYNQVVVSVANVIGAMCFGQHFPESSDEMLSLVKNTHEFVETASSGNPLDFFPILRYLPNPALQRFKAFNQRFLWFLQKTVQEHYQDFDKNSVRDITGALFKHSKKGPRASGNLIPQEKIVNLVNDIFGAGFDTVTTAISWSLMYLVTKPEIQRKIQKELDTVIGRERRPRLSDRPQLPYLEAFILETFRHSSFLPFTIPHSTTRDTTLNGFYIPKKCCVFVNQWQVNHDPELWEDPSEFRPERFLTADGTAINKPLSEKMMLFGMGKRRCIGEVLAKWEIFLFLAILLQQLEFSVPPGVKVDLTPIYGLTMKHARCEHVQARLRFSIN

The nature of data set [1]: HEK-293T viability loss after treatment – luminescence, T-cell screen hits, cytotoxicity control for TCR NF-kB inhibitor project, dose response (AID 489026).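 Also: cells exposed to compound about 14 hours before the viability readout.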 The class given is functional, cell-based.
Data set [2] deals with BJ. Kind of data set: cells. Type of data set: functional, cell-based. The following applies: Homo sapiens.
The test system of data set [3] is BJ. Nature of the data set: BJ-TERT fibroblast viability loss – cell-based, RAS-independent, luminescence, dose response (AID 1933). The class given is functional. To be noted: Homo sapiens.
Data set [4] in a line: DRD fibroblast viability loss – cell-based, non-viral oncogenic, luminescence, dose response (AID 1934). The class given is functional. The following applies: Homo sapiens.
In data set [5] the target is T2, DNA repair and recombination protein RAD54-like (Homo sapiens, UniProt Q92698).
T2 sequence (Q92698 whole entry): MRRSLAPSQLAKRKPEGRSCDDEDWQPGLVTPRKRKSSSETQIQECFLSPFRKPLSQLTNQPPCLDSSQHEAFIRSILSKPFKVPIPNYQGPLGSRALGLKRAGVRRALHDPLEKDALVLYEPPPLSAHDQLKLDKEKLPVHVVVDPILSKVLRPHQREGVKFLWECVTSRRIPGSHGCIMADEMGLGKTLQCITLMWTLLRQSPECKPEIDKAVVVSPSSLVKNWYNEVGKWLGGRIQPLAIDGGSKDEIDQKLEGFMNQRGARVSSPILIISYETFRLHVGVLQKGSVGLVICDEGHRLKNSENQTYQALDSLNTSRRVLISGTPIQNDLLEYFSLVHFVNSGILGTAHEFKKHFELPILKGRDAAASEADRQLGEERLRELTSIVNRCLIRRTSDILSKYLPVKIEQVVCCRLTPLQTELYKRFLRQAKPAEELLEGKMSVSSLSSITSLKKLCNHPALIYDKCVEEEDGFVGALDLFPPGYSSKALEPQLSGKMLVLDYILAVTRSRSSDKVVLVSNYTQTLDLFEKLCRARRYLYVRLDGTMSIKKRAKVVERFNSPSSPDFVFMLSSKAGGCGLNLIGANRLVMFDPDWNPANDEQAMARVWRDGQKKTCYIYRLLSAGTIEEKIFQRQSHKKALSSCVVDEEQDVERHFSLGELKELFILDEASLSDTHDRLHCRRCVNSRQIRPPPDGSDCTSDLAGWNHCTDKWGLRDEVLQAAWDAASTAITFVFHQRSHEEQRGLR
Kind of data set: RAD54 Holliday junction migration blockers – biochemical, fluorescence, cherry-picked samples, dose series, confirmation (AID 651657). Type of data set: functional.

In another data set the target is Nonstructural protein 1 (Influenza A virus, UniProt Q194T2). Type of data set: functional, Influenza A virus (A/California/07/2009(H1N1)).
Sequence of Nonstructural protein 1 (Q194T2 whole entry): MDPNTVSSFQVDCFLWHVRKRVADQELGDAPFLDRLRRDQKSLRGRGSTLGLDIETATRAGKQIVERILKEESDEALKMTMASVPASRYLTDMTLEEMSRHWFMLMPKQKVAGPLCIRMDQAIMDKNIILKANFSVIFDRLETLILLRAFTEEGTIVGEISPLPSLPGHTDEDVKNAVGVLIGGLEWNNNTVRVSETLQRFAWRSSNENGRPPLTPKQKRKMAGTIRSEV
The nature of data set [6]: Luminescence Cell-Based Dose Response HTS to Identify Activators of Luciferase Translation or Activity in H4 […] Cells. [Related pubchem assays: 1829 (Project Summary), 1814 (Primary HTS)]. The class given is functional.
For data set [7], the target named is Dual specificity tyrosine-phosphorylation-regulated kinase 1A (Rattus norvegicus, UniProt Q63470). Type of data set: biochemical, Homo sapiens.
The next data set deals with H4. Nature of the data set: Luminescence Cell-Based Dose Response HTS to Identify Activators of 5'UTR Stem-Loop Driven Prion Protein mRNA Translation in H4 Neuroglioblastoma Cells. [Related pubchem assays: 1829 (Project Summary), 1814 (Primary HTS)]. The class given is functional. To be noted: Homo sapiens.
Data set [8] can be described thus: Luminescence Cell-Based Dose Confirmation HTS to Identify Activators of 5'UTR Stem-Loop Driven Alpha-Synuclein mRNA Translation in H4 Neuroglioblastoma Cells. [Related pubchem assays: 1829 (Project Summary), 1814 (Primary HTS)]. Type of data set: functional.
A further data set relates to Vero. Nature of the data set: cells. Type of data set: functional. The following applies: Chlorocebus sabaeus.
The target in data set [9] is T3, Replicative DNA helicase DnaB (Mycobacterium tuberculosis, UniProt P9WMR3).
T3 sequence (P9WMR3 whole entry): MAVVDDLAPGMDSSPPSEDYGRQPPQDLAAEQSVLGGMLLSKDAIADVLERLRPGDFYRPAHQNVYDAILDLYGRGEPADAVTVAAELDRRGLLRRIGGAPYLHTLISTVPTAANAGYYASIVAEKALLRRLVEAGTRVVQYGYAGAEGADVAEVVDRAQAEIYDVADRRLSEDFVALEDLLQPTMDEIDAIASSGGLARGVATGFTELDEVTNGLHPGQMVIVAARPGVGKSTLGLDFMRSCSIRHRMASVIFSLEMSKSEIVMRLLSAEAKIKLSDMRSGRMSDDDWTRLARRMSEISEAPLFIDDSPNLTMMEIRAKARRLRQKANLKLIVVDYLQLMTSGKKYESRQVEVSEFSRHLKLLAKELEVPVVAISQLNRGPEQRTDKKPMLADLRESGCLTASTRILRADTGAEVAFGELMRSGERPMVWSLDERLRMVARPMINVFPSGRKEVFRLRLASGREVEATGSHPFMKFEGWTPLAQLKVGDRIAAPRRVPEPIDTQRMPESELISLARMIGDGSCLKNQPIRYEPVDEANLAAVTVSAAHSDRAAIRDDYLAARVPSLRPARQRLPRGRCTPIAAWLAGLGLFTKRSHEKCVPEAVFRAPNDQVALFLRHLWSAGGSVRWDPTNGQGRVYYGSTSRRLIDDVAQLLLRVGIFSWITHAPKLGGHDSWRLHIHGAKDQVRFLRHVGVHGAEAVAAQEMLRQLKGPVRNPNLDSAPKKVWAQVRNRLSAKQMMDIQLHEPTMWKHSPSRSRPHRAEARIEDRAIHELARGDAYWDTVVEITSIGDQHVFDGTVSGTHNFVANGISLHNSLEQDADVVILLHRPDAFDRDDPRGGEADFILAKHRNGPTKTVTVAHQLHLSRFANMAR
Kind of data set: DnaB intein splicing inhibitors, dose response, biochemical, cell-free fluorescence (AID 449749). Type of data set: functional.

The target of the next data set is T4, Protein RecA (Mycobacterium tuberculosis, UniProt P9WHJ3).
T4 sequence (P9WHJ3 whole entry): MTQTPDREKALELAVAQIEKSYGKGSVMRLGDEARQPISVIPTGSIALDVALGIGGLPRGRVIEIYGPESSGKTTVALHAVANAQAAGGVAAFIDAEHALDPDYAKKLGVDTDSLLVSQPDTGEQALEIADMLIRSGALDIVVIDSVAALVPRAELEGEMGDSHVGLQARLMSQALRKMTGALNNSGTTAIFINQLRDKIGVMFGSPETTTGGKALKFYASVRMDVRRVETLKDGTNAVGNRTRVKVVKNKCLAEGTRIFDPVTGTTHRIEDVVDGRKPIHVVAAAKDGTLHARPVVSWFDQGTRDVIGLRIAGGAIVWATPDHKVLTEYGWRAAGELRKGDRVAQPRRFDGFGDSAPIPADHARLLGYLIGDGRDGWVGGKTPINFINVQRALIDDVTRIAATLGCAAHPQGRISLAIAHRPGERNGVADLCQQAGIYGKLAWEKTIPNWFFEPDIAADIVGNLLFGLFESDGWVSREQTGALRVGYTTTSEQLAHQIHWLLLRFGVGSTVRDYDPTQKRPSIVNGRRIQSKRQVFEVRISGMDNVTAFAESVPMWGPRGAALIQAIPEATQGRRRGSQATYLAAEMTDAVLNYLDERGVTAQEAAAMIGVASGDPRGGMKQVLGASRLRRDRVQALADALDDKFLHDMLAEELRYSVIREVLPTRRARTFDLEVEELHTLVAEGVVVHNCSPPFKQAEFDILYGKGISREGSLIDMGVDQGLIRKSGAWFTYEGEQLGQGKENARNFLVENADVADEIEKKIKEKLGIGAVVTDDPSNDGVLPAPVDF
Kind of data set: Fluorescence Cell-Free Homogeneous Dose Retest to Identify Inhibitors of RecA-Intein Splicing Activity. [Related pubchem assays (depositor defined):AID2097, AID2223, AID489010, AID492950]. Type of data set: functional.

For a further data set, the system named is Streptococcus. Nature of the data set: GAS UMAA2166 growth inhibition – luminescence, BacTiterGlo, counter-screen for streptokinase expression inhibitor project, dose response (AID 1915).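 Also: potency for reduction of bacterial viability or growth.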 The class given is functional, organism-based.
Data set [10] relates to Streptococcus sp. 'group A'. Nature of the data set: Streptococcus pyogenes SK(-)GAS viability under kanamycin – luminescence, BacTiterGlo, confirmation, counter-screen for streptokinase expression inhibitor project, dose response (AID 1900). Type of data set: functional, organism-based.

Sequence of SUMO-activating enzyme (Q9UBE0 whole entry): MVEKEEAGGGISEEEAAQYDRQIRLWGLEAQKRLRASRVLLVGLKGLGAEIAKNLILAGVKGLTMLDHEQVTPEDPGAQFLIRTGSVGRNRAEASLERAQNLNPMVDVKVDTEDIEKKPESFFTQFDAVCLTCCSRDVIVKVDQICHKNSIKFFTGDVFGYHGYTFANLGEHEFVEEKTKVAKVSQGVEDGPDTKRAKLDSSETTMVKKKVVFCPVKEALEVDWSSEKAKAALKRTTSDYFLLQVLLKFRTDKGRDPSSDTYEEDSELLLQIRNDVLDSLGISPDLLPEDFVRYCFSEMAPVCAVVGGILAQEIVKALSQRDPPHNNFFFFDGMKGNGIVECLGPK
Sequence of SUMO-activating enzyme (Q9UBT2 whole entry): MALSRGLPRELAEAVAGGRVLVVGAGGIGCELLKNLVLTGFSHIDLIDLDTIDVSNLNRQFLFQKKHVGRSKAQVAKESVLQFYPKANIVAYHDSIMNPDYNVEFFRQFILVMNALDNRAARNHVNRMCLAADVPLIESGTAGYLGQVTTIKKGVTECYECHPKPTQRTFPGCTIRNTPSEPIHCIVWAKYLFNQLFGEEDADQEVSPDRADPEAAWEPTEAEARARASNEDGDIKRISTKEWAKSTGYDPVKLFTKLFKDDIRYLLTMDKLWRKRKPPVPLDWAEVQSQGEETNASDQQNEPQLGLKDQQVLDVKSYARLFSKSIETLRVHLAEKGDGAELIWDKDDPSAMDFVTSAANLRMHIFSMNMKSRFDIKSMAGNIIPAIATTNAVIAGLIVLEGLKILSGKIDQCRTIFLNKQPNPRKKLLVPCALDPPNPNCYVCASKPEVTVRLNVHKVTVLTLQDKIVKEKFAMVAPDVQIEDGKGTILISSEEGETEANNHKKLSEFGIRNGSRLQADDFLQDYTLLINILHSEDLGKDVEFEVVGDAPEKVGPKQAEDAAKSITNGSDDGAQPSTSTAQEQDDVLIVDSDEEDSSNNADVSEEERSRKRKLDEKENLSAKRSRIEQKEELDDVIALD
Sequence of Cytochrome P450 2D6 (P10635 whole entry): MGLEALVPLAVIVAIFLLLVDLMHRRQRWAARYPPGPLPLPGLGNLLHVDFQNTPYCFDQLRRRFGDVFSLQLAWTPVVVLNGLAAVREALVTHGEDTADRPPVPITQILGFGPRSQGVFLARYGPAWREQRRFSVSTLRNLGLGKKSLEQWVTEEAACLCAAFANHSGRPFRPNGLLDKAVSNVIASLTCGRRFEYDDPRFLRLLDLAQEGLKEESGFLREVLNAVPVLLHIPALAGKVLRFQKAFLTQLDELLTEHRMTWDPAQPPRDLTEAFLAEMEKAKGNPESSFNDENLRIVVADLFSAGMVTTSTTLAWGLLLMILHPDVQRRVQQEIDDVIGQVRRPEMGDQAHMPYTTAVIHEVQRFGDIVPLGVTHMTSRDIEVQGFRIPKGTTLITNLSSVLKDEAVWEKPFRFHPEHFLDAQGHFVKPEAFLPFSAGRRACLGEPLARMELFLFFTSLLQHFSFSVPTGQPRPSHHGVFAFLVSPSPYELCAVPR

In the case of `Cc1nn(-c2ccccc2)c2sc(C(=O)NNC(=O)COc3ccccc3)cc12`, the half-maximal inhibitory concentration (IC50) on SUMO-activating enzyme is 33.6 µM (active).

As for `CC(C)(C)c1ccc(OC(=O)Cn2c(C(F)(F)F)nc3ccccc32)cc1`, the values for the AC50 entry on Cytochrome P450 2D6, at Cytochrome P450 2C9 and on Cytochrome P450 2C19 were “inconclusive”, 0.891 µM (inconclusive) and “inconclusive”, respectively.

For `CN(C)c1ncnc2c1ncn2CCn1cnc2c(N(C)C)ncnc21`, the AC50 result at Cytochrome P450 2D6 was “inconclusive”; at Cytochrome P450 1A2, 6.31 µM (inconclusive).

For `COc1cc(-c2noc(C)c2-c2ccc(N(C)C)nc2)cc(OC)c1OC`, the IC50 in [1] is > 80 µM (inactive). The half-maximal effective concentration (EC50) with BJ [2] was 15.7 µM (inconclusive); with BJ [3], 0.174 µM (active); in data set [4], 4.06 µM (inconclusive).

As to `CCNCCNC(=O)c1c(O)c2cccc3c2n(c1=O)CCC3`, the AC50 in data set [5] was 86.3 µM (active).

In the case of `CCCCNc1c([N+](=O)[O-])ccc2c1=NC1(CCCCC1)[N+]=2[O-]`, the half-maximal inhibitory concentration (IC50) on Nonstructural protein 1 was 43.8 µM (active).

Take `CCc1ccc2nc(NC(=O)C3CSC4(C)CCC(=O)N34)sc2c1` (stereo not given): the figures for the EC50 (in [6]; in the data set on H4; in data set [8]) were 19.6 µM (active), 6.99 µM (active) and > 120 µM (not active), respectively. Further, in data set [7], the AC50 is 7.62 µM (active).

Consider `CN(C)CCNC(=O)c1cc2c(=O)n(C)c3ccccc3c2n1C`, for which the AC50 in data set [5] was 16.2 µM (active).

Turning to `O=C(O)c1cc2ccccc2c(S(=O)(=O)O)c1O`, the AC50 entry at Cytochrome P450 2D6 is reported as “inconclusive”.

As to `Cc1ccc(C(=O)Nc2sc3c(c2C(=O)NCc2ccco2)CCCC3)cc1`, the IC50 on SUMO-activating enzyme is 29.9 µM (active).

On to `CC1CCC(C(C)C)C2=C1C(C#N)(C#N)C(C#N)(C#N)C(c1ccccc1)N2` (stereo not given), for which the half-maximal cytotoxic concentration (CC50) in the data set on Vero is 16.7 µM (active). Moreover, the AC50 in data set [7] is 5.69 µM (active).

Take `COc1cc2cc(c1Cl)N(C)C(=O)C[C@H](OC(=O)C(C)C)[C@]1(C)O[C@@H]1[C@@H](C)[C@H]1C[C@](O)(NC(=O)O1)[C@@H](OC)/C=C\C=C(\C)C2`: the AC50 result at Cytochrome P450 2D6 and on Cytochrome P450 2C19 was “inconclusive” in each case.

On to `O=C(NC(=S)NNC(=O)c1ccccc1O)c1ccco1`, for which the IC50 on Nonstructural protein 1 was 8.7 µM (active). Also, in [9], the AC50 is 95.2 µM (active). Also, the concentration giving a half-maximal response (EC50) is 114 µM (inconclusive) at Protein RecA, 7.67 µM (active) in the data set on Streptococcus and 3.27 µM (active) in [10].

`O=c1c(O[C@@H]2O[C@H](CO)C(O)C2O)c(-c2ccc(O)c(O)c2)oc2cc(O)cc(O)c12` (stereo not given in full): the AC50 in data set [7] is 18 µM (active).

For `O=C(N/N=C\c1cn[nH]c1-c1ccc(Cl)cc1)c1cccs1`, at SUMO-activating enzyme, the IC50 is > 100 µM (inactive).

With `Cc1[nH]n(-c2ccccc2)c(=O)c1N=Nc1ccc(F)cc1`, the IC50 at Nonstructural protein 1 was 84.7 µM (active).

On to `COc1ccc(/C=N/N(C(C)=O)c2nc(-c3ccc(C)cc3)cs2)cc1`, for which the AC50 result was “inconclusive” at Cytochrome P450 2D6, 3.16 µM (inconclusive) on Cytochrome P450 2C9 and 0.447 µM (inconclusive) at Cytochrome P450 2C19 (read-out: AC50).

Consider `O=C(Nc1ccc2ccccc2n1)c1ccccc1`, for which, in data set [7], the AC50 was 77.5 µM (active).
